Laboratory results published in patent US12509448B2, “Salts of indoleamine 2,3-dioxygenase inhibitors” (INVENTISBIO CO., LTD., priority 2019, dated 2025).
In brackets after ≈: the same amount, converted by molar mass. Entries after “also recorded” stand apart in the source; their conditions may differ. Structures can show the parent of a compound that is named as a salt.

Experiments:
human hepatocyte = details: compared to INCB-24360 and others of WO2014150677 and WO2014150646; cited from earlier work
[1] = Solid stability test at 40° C./75% RH (HPLC, XRPD); assay type: physicochemical; details: for physical and chemical stability (XRPD and HPLC): 40° C./75% RH during testing period (9 days; HCl salt 7 days); for Purity (% Area) Initilal: solid stability test, 0 days
Method: (§1) HPLC ANALYSIS: a representative HPLC method is shown below, which can be used, for example, to analyze the purity, solubility, and stability of the salts herein.
Stability test: About 15 mg of Compound 1 (Form II), and K salt (Form III) were weighed into vials, and put at the condition of 40° C./75% RH for 9 days. At 0 and 9 days, the solid sample was dissolved using methanol/water (1/1) to make a solution with a concentration of 0.2 mg/mL. Sample solutions were analyzed by HPLC and solid samples were examined by XRPD.
About 15 mg of Compound 1 HCl salt (Form I) was weighed into vials, and put at the condition of 40° C./75% RH for 7 days. At 0 and 7 days, the solid sample was dissolved using methanol/water (1/1) to make a solution with the concentration of 0.2 mg/mL. The sample solution was analyzed by HPLC and solid sample was analyzed by XRPD.
K salt and Compound 1 was stored at 40° C./75% RH for 9 days, while HCl salt was stored for 7 days.

[2] = Dynamic moisture sorption analysis (DVS); assay type: physicochemical; details: for moisture adsorbed in DVS test: at 80% RH
Method: Dynamic moisture sorption analysis (DVS): DVS was determined using IGAsorp (Hiden Isochema, UK). The sample was tested at a targeted RH of 10 to 90% full cycle in step mode. The analysis was performed in 10% RH increments.

[3] = Solubility test in pH 1.2, 6.8 and 7.4 buffers (HPLC, pH of filtrate, XRPD of remaining solid); assay type: physicochemical; details: for remaining solid by XRPD: pH 1.2 buffer solution; for change of pH of the buffer solutions: HCl salt: pH 6.8 and 7.4 buffer solutions, K salt: buffers; for solubility compared with Compound 1: buffer solutions
Method: as §1
Solubility test: About 15-20 mg of Compound 1 (Form II), K salt (Form III) and HCl salt (Form I) were weighed into vials, and then added 1.5 mL of pH 1.2, pH 6.8 or pH 7.4 buffer to make saturated solutions.
All suspensions were kept shaking with 200 rpm at room temperature for up to 24 hours. At 30 min and 24 hours, the sample solution was filtered and analyzed by HPLC to determine the solubility. The pH of filtrates was also measured. At 24 hours, remaining solids were collected and determined by XRPD.
First, the solubility of Compound 1, HCl salt and K salt was tested in pH 1.2, 6.8 and 7.4 buffer solutions at 25° C. for 30 min and 24 hours. The solubility data and pH value of filtrate were listed in Table 6 and Table 7, respectively.
Additional solubility of Compound 1 and the HCl salt was tested in pH 6.8 and 7.4 for 30 min and 2 hours.

[4] = Grinding of Form I (XRPD); assay type: physicochemical; details: grinded for 2 min and 5 min
Method: Form I of the HCl salt was grinded for 2 min and 5 min.

[5] = Stability of HCl salt Form I in water and in solvent; assay type: physicochemical
[6] = Physical stability of Form I under heat and high humidity (XRPD); assay type: physicochemical; details: for crystalline form by XRPD after storage at high humidity: 25° C./92.5% RH for 10 days; for crystalline form by XRPD after storage under heat: 60° C. for 10 days
Method: Samples of HCl salt Form I was put into the condition of 92.5% RH or 60° C. for 10 days. Then the sample was analyzed by XRPD. […] XRPD patterns were shown in FIG. 1C (92.5% RH for 10 days) and FIG. 1D (60° C. for 10 days).

[7] = additional test (Table 8), pH 6.8 buffer
[8] = additional test (Table 8), pH 6.8 buffer, 2 hours
[9] = additional test (Table 8), pH 7.4 buffer
[10] = additional test (Table 8), pH 7.4 buffer, 2 hours
[11] = pH 1.2 buffer, 24 hours, 25° C.
[12] = pH 6.8 buffer, 24 hours, 25° C.
[13] = pH 7.4 buffer, 24 hours, 25° C.

| Compound | physical and chemical stability (XRPD and HPLC) [1] | Purity (% Area) Initilal [1] [% Area] | Purity (% Area) 9 days ([1]; solid, 40° C./75% RH) [% Area] | XRPD pattern after DVS test [2] | moisture adsorbed in DVS test [2] | Solubility (mg/mL) 30 min [3, 7] [mg/mL] | Solubility (mg/mL) 2 hours [3, 8] [mg/mL] | Solubility (mg/mL) 30 min [3, 9] [mg/mL] | Solubility (mg/mL) 2 hours [3, 10] [mg/mL] | pH value of filtrate 30 min ([3]; pH 1.2 buffer) | Solubility (mg/mL) 30 min ([3]; pH 1.2 buffer, 25° C.) [mg/mL] | pH value of filtrate 24 hours ([3]; pH 1.2 buffer, 24 hours) | pH value of filtrate 30 min ([3]; pH 6.8 buffer) | Solubility (mg/mL) 30 min ([3]; pH 6.8 buffer, 25° C.) [mg/mL] | pH value of filtrate 24 hours ([3]; pH 6.8 buffer, 24 hours) | Solubility (mg/mL) 24 hours [3, 12] [mg/mL] | pH value of filtrate 30 min ([3]; pH 7.4 buffer) | Solubility (mg/mL) 30 min ([3]; pH 7.4 buffer, 25° C.) [mg/mL] | pH value of filtrate 24 hours ([3]; pH 7.4 buffer, 24 hours) | Solubility (mg/mL) 24 hours [3, 13] [mg/mL] | other results |
| --- | --- | --- | --- | --- | --- | --- | --- | --- | --- | --- | --- | --- | --- | --- | --- | --- | --- | --- | --- | --- | --- |
| CCN(c1ncc(C2(C(=O)O)CCC2)cc1Nc1ccc(Cl)cc1)C1CCOCC1 [Compound 1, 1-(5-((4-chlorophenyl)amino)-6-(ethyl(tetrahydro-2H-pyran-4-yl)amino)pyridin-3-yl)cyclobutane-1-carboxylic acid] | physically and chemically stable | 99.53 | 99.53 | not changed | about 0.37% | 0.11 (≈ 256 µM) | 0.12 (≈ 279 µM) | 0.39 (≈ 907 µM) | 0.44 (≈ 1020 µM) | 1.11 | 0.49 (≈ 1140 µM) | 1.16 | 6.87 | 0.13 (≈ 302 µM) | 6.81 | 0.04 (≈ 93 µM) | 7.39 | 0.44 (≈ 1020 µM) | 7.38 | 0.50 (≈ 1160 µM) | human hepatocyte clearance compared to other IDO inhibitors (human hepatocyte): better human hepatocyte clearance; XRPD pattern after DVS test ([2]; listed as Form II): remained unchanged; remaining solid by XRPD ([3]; 24 hours): changed into HCl salt; Solubility (mg/mL) 24 hours [3, 11]: 0.51 mg/mL (≈ 1190 µM) |
| CCN(c1ncc(C2(C(=O)O)CCC2)cc1Nc1ccc(Cl)cc1)C1CCOCC1 [HCl salt] | physically and chemically stable | 99.81 |  | not changed |  | 1.62 | 0.95 | 3.41 | 3.53 | 1.10 | 0.58 | 1.17 | 6.59 | 1.45 | 3.34 | 0.02 | 7.02 | 3.66 | 6.06 | 0.49 | crystalline form by XRPD after grinding [4]: still Form I; degradation in solvent ([5]; in THE at 60° C.): can be degraded; dissociation in water ([5]; in water): can dissociate to Compound 1; Purity (% Area) 7 days ([1]; solid, 40° C./75% RH, 7 days): 99.78 % Area; crystalline form by XRPD after storage at high humidity [6]: unchanged; crystalline form by XRPD after storage at high humidity ([6]; listed as Form I): remained unchanged; crystalline form by XRPD after storage under heat [6]: unchanged; crystalline form by XRPD after storage under heat ([6]; listed as Form I): remained unchanged; XRPD pattern after DVS test ([2]; listed as Form I): remained unchanged; change of pH of the buffer solutions [3]: obviously decreased; solubility compared with Compound 1 [3]: higher solubility than Compound 1; also recorded: more soluble than Compound 1; solubility at 24 h ([3]; pH 1.2 buffer, 25 °C, pH 1.2, simulated gastric fluid, thermodynamic from solid, pH 1.2 buffer, 24 hours, 25° C., read-out: Solubility (mg/mL) 24 hours): 0.65 mg/mL; change of solubility with time ([3]; pH 6.8 and 7.4 buffers at 24 hours): obviously decreased; solid by XRPD ([3]; pH 6.8 and 7.4 buffers, 2 hours): part of HCl salt had been changed to be Compound 1; change of solubility with time ([3]; pH 6.8 buffer at 2 hours): decreased; change of solubility with time ([3]; pH 7.4 buffer, 2 hours versus 30 min): almost constant |
| CCN(c1ncc(C2(C(=O)O)CCC2)cc1Nc1ccc(Cl)cc1)C1CCOCC1 [K salt] | physically and chemically stable | 99.80 | 99.79 |  |  |  |  |  |  | 1.18 | 9.52 | 1.23 | 6.84 | 2.55 | 7.46 | 0.55 | 7.62 | 6.38 | 8.02 | 2.25 | XRPD pattern after DVS test ([2]; listed as potassium salt): not changed; moisture adsorbed in DVS test ([2]; listed as potassium salt): 1.32%; change of pH of the buffer solutions [3]: increased; solubility compared with Compound 1 [3]: much higher; also recorded: higher solubility than Compound 1; solubility compared with Compound 1 ([3]; listed as potassium salt): more soluble than Compound 1; remaining solid by XRPD ([3]; 24 hours): changed into HCl salt; Solubility (mg/mL) 24 hours [3, 11]: 0.71 mg/mL |
| CCN(c1ncc(C2(C(=O)O)CCC2)cc1Nc1ccc(Cl)cc1)C1CCOCC1 [Na salt] |  |  |  | changed | 30.84% |  |  |  |  |  |  |  |  |  |  |  |  |  |  |  | XRPD pattern after DVS test ([2]; listed as Form IV): changed into a different form; moisture adsorbed in DVS test ([2]; listed as sodium salt): about 30% |
